Experimental data taken from patent US20200308546A1, “ENGINEERED CARDIOMYOCYTES AND USES THREOF” (THE J. DAVID GLADSTONE INSTITUTES, A TESTAMENTARY TRUST …, priority 2016, published 2020).

Key:
[1] = test system: hiPS cell-derived cardiomyocytes; test: Calcium flux measurements of hiPS cell-derived cardiomyocytes; assay type: cell-based, human; settings: isoproterenol followed by carbachol, FIG. 17
Excerpt: A step-wise differentiation protocol was used to generate purified cardiomyocytes from the above-described iPS cell lines (FIG. 12) (Lian et al, 2012; Tohyama et al.,2013). […] The iPS cardiomyocytes spontaneously contracted, expressed high levels of sarcomeric and myofibril markers, and had membrane electrophysiology and gene expressions similar to human cardiomyocytes; 30% were binucleated (FIGS. 15 and 16). […] The protocol thus generated functional human cardiomyocytes suitable for deeper interrogation of cell identity and function.

iWT cardiomyocytes = test: Traction force microscopy of paced engineered cardiomyocytes (force generation, beat rate), iWT; assay type: cell-based, human; settings: wild-type cells, FIGS. 93-95
Excerpt: FIG. 93 is a set of graphs showing force generation of engineered cardiomyocytes treated with a PI3K inhibitor (left) or PI3K activator (right). Relative change in force generation between iWT (black) and G296S (grey) cardiomyocytes after inhibition (circle) or activation (triangle) of P13K signaling. Traction force microscopy (TFM) measurements of CMs responding accurately to 1 Hz pacing. Data are mean±sem, *,p<0.05, **,p<0.005, ***p<0.0005 (Mann-Whitney test).
FIG. 94 is a schematic illustrating the postulated protein-protein interaction in wild-type (top) and G296S mutant (bottom) cardiomyocytes. Beat rate measurements between iWT (black) and G296S (grey) cardiomyocytes after inhibition (circle) or activation (triangle) of P13K signaling. TFM measurements of cardiomyocytes responding accurately to 1 Hz pacing. Data are mean±sem, *,p<0.05, ** p<0.005, ***p⋅<0.0005 (Mann-Whitney test).
A “scale-free” network (Barabasl and Albert, ⋅1999) of 716 nodes connected by 2,353 edges with an average 6.6 neighbors and path length of 4.3 (FIG. 90). Nodes were connected by edges representing physical (protein-protein) or functional (genetic, co-expression, co-occurrence) interactions. At least 5 sub-networks connected through 20 regulatory “hubs” were identified. […]

`CC(C)NCC(O)c1ccc(O)c(O)c1` (stereo not drawn) [isoproterenol] was tested, and the calcium flux response [1] was “expected response”.

For `C[N+](C)(C)CCOC(N)=O` [carbachol], the calcium flux response [1] was “expected response”.

`O=c1cc(N2CCOCC2)oc2c(-c3ccccc3)cccc12` [LY294002] was tested, and the beat rates (iWT cardiomyocytes) was “no effect”.
